This data set can be described thus: In vitro phase I metabolism with mouse hepatic microsomes and NADPH. It is filed as in vitro ADME. As to conditions: liver microsomal enzymes of C57BL/6 male mice. As for the experimental part: Figure 2 PZ-DHA undergoes phase I metabolism in the presence of freshly prepared mouse liver microsomes. PZ-DHA (1.1 µM) was incubated with 100 mM NADPH in the presence of mouse liver microsome for 1 h at 37 °C. Metabolites from PZ-DHA (A) hydrolysis, (B) and (C) hydroxylation, and (D) epoxidation were identified.
Mouse hepatic microsomes were freshly isolated from the livers of male C57BL/6 mice, and the entire extraction procedure was carried out at 4 °C. Mouse livers were minced and homogenized in KCl/sucrose phosphate buffer (0.154 M KCl, 0.25 M sucrose in 50 mM potassium phosphate buffer (K2HPO4/KH2PO4) (PPB), pH 7.5). Cell/tissue debris was separated out by centrifuging homogenized livers at 12,000×g for 22 min at 4 °C. The supernatant was collected and centrifuged at 100,000×g for 70 min at 4 °C. The pellet was gently rinsed using 50 mM PPB and resuspended in glycerol/phosphate buffer (20% glycerol (v/v), 80% 0.1 M PPB pH 7.5). The protein concentration was determined using a Bradford assay (R^2 = 1.00), and microsomes were stored at − 80 °C.
Potential in vitro phase I and phase II metabolites of PZ-DHA were detected by incubating PZ-DHA in the presence of freshly-prepared mouse hepatic microsome preparations. Phase I metabolites were determined by incubating 1.1 µM PZ-DHA with 100 mM NADPH in the presence of mouse hepatic microsomes for 1 h at 37 °C. Phase II methylation, glucuronidation, and sulphation of PZ-DHA was determined by incubating 1.1 µM PZ-DHA with 1 mM SAM, 2 mM UDPGA, and 0.5 mM PAPS, respectively, in the presence of freshly prepared mouse hepatic microsome for 1 h at 37 °C (Supplementary information Tables S1–S4). To assess the efficiency of the metabolic process, controls (no PZ-DHA control, no mouse hepatic microsome control and no co-factor control) were incubated in parallel to the test. Reactions were terminated by adding a mixture of 4 mL ice-cold acetonitrile:acetone (80:20) containing 0.05 mg/mL quercetin as the internal standard. Proteins were precipitated by incubating the reaction mixture at 4 °C overnight and separated by centrifuging at 14,000 × g for 15 min at 4 °C. Supernatants were concentrated under nitrogen flush, filtered and PZ-DHA and/or PZ-DHA metabolites were identified using a UPLC-ESI–MS/MS system (Waters Limited, Mississauga, ON, Canada).
PZ-DHA and/or PZ-DHA metabolites in malignant/non-malignant epithelial cell lysates, in vitro microsome enzyme reaction mixtures, and mouse serum aliquots were determined using UPLC-ESI–MS/MS instrument (Waters Limited, Mississauga, ON, Canada). All mass spectroscopic analyses were performed using mass scan (full-scan, identification of unknowns) and single ion monitoring (SIM; quantification of PZ, DHA, PZ-DHA, and quercetin) modes of a Waters H-class UPLC separations module coupled with a Micromass Quattro micro API MS/MS system and MassLynx V4.0 control software. An Allure biphenyl column (100 mm × 2.1 mm, 1.8 μm, Restek Pure Chromatography, Bellefonte, PA, USA) and a flow rate of 0.3 mL/min were employed. ESI- mode with a capillary voltage of 3000 V and a nebulizer gas (N2) temperature of 375 °C were used. A volume of 2 µL sample was injected.
Background: Liver microsomes are a subcellular fraction often used to study metabolism.

The values that follow come from PMC7721897, “Metabolism and pharmacokinetics of a novel polyphenol fatty acid ester phloridzin docosahexaenoate in Balb/c female mice” (Scientific Reports, 2020).

For `CC/C=C\C/C=C\C/C=C\C/C=C\C/C=C\C/C=C\CCC(=O)OC[C@H]1O[C@@H](Oc2cc(O)cc(O)c2C(=O)CCc2ccc(O)cc2)[C@H](O)[C@@H](O)[C@@H]1O` [PZ-DHA, phloridzin docosahexaenoate], the “NADPH-dependent phase I bio-transformations identified” value is “hydrolysis, hydroxylation, and epoxidation”.
